Assays:
Assay type in all cases: cell-based, human
BxPC3-SMAD4+ = test: XTT cell viability assay, BxPC3-SMAD4+; settings: BxPC3-SMAD4+ vs BxPC3, XTT, 48 hours; TGFβ1 0.02 ng/ml, NT-S100A8 50 nM
Description: Supplementary file 1478-811X-12-20-S7.tiff: Additional file 7: Figure S6 XTT cell viability assay results. BxPC3 (empty columns) and BxPC3-SMAD4+ (filled columns) were seeded in a 96 well culture plate (2000 cells/well) and cultured for 48 hours, A: in absence (control) or in presence of TGFβ1 (0.02 ng/ml) and NT-S100A8 (50 nM), alone or combined; B: in absence (control) or in presence of TGFβ1 (0.02 ng/ml) and S100A8 (10 nM) and S100A9 (10 nM), alone or combined. In each experimental set, the median value of Abs450nm of untreated cells was calculated and used as reference. All the other values were expressed as percentage to the reference. Columns and bars show mean and standard errors, respectivelty. Student’s t test: * = p<0.05. Click here for file
BxPC3, Capan1, MiaPaCa2, Panc1 and BxPC3-SMAD4+ cells were seeded (2000 cells per well) in 96-well cell culture plates and cultured in complete media for 24 hours. […] Cell growth was assessed after 48 hours using the XTT cell viability test (Roche, Milano, Italy). […] The results were expressed as percentage with respect to the median Abs450nm of control cells run in the same experimental set.

[1] = system: IκBα phosphorylation at Ser32; test: NF-κB signaling, western blot of IκBα phosphorylation in PDAC cell lines; settings: BxPC3, Capan1, MiaPaCa2, Panc1, 10 min, 10 nM S100A8, S100A9, S100A8/A9, 50 nM NT-S100A8, 0.02 ng/ml TGFβ1
Description: Five million cells were seeded in Petri dishes (ø 10 cm) and cultured for 24 hours in their respective complete media prior to starting the experiments. Cells remained non-stimulated (negative control) or were stimulated with 50 mU insulin (positive control) (Insuman Rapid, Sanofi-Aventis, Deutschland, GmbH) for 10 min; in parallel, experimental cells were stimulated with 50 nM NT-S100A8, 0,02 ng/ml TGFβ1 (ProSpec-Tany TechnoGene), 10 nM S100A8 and 10 nM S100A9 alone or combined for 10 min. Following stimulations, Petri dishes were immediately transferred into an ice bath, and the cells were washed twice with cold PBS, re-suspended in 100 μl of cold lysis buffer [20 mM Tris–HCl, pH 7.5, 150 mM NaCl, 1 mM EDTA, 1% Triton-X 100, 50 mM NaF, 10 mM Na4P2O7,1 mM Na3VO4, and 10% protease inhibitor cocktail (Sigma Aldrich SRL, Milano, Italy)]. Lysates were centrifuged for 10 min at 14,000 rpm at 4°C and, in the supernatants, total proteins were measured using the Bio-Rad protein assay (Bio-Rad Laboratories, Milano, Italy). Each experiment was performed at least in triplicate.
For each sample, 40 μg proteins were electrophoresed through 4–12% NuPAGE®NovexBis-Tris SDS–PAGE Gel or 3-8% NuPAGE®NovexTris-Acetate SDS–PAGE Gel (Invitrogen S.R.L., Life Technologies, Monza, Italy) and electrophoretically transferred to Nitrocellulose Membrane (iBlot® Transfer Stack, Invitrogen S.R.L.) by means of the iBlotTMDry Blotting System (Invitrogen S.R.L.). Following incubation for 1 hour in a blocking buffer [5% low fat powder milk re-suspended in PBS-T (PBS with 0.1% Tween-20)], membranes were incubated overnight at 4°C with the primary antibodies [antiphospho IkB-α (Ser^32) (Santa Cruz Biotechnology, Inc., Santa Cruz, CA, USA); anti-phospho-Akt (Ser^473), anti-phospho-Akt (Thr^308), anti-Akt and anti-phospho-S6 Ribosomal Protein (Ser^235/236), anti-cleaved Caspase-3, anti-phospho-Stat3 Tyr^705, anti-β-actin, anti-phospho mTOR (Ser^2448, Ser^2481) (Cell Signaling Technology, Danvers, MA, USA); anti-RAGE (R&D Systems, Minneapolis, MN, USA) ] diluted 1:5000 (β-actin), 1:2000 (mTOR, cleaved Caspase-3, Stat3) or 1:3000 (all the others) in the blocking buffer. The blots, washed three times in PBS-T for 15 min, were incubated with […] anti-rabbit (Cell Signaling Technology) or anti-goat (Sigma Aldrich) secondary antibodies and then washed three times in PBS-T for 15 min and developed with the ECL Advance Western Blot Detection Kit (GE Healthcare Technologies, Milan, Italy).

BxPC3 EMT gene mRNA = test: Real time PCR for EMT markers, BxPC3; settings: BxPC3, 72 hours
Description: BxPC3 and MiaPaCa2 cells (300 × 10^3) were seeded in six well dishes for 24 hours in their complete media. Cells remained non-stimulated (negative control) or were stimulated with 10 nM S100A8, 10 nM S100A9 and 50 nM NT-S100A8, alone or combined with 0.02 ng/ml TGFβ1, for 72 hours. Following stimulation, the cells were collected with 0.25% trypsin (1 mM EDTA) and centrifuged for 10 min at 4,000 rpm. Total RNA was extracted from cells using the High Pure RNA isolation kit (Roche, Monza, Italy), and reverse transcription was performed using 200 ng of total RNA, M-MLV Transcriptase and 250 μM random primers (Invitrogen S.R.L.). Quantitative Real-Time PCR analysis for CDH1 (E-cadherin), CDH2 (N-cadherin), SNAI1 (Snail), SNAI2 (Slug), TWIST1 (Twist), ZEB1, ZEB2, and B2M (β2-micro-globulin) were performed with the LightCycler 480 Real-Time System (Roche Diagnostics, Mannheim, Germany). The primer sequences (shown in Additional file 10: Table S2) and the respective probes were designed using the Universal ProbeLibrary (Roche) and ProbeFinder software (http://www.roche-applied-science.com/). Experimental procedures followed the standard protocol using the LightCycler 480 Probes Master (Roche). β2-microglobulin (B2M) was included as a housekeeping gene control. […]

## NT-S100A8: 14 N-terminal aminoacid peptide of S100A8, isolated from PDAC tissues (MLTELEKALNSIID; UniProt P05109 1-14, looked up, fragment)
BxPC3-SMAD4+
  cell proliferation response associated with Smad4 expression: positive cell proliferation response
[1]
  IκBα phosphorylation (Ser32): reduced IκBα phosphorylation in Capan1, MiaPaCa2 and Panc1, not in BxPC3

## S100A8: inflammatory calcium binding protein S100A8 (ProSpec-Tany TechnoGene)
BxPC3 EMT gene mRNA; 10 nM, levels comparable with those of TGFβ1, Kruskal-Wallis p = 0.018
  Twist expression: significantly increased
[1]
  IκBα phosphorylation (Ser32): reduced IκBα phosphorylation in Capan1, MiaPaCa2 and Panc1, not in BxPC3

## S100A9: inflammatory calcium binding protein S100A9, S100A8 binding partner
[1]
  IκBα phosphorylation (Ser32): reduced IκBα phosphorylation in Capan1, MiaPaCa2 and Panc1, not in BxPC3

## TGFβ1: transforming growth factor beta 1 (ProSpec-Tany TechnoGene)
BxPC3-SMAD4+
  cell proliferation response associated with Smad4 expression: positive cell proliferation response
BxPC3 EMT gene mRNA; 0.02 ng/ml TGFβ1, RT-PCR, with respect to control cells
  Twist median fold increase: 6.32 fold
[1]
  IκBα phosphorylation (Ser32): no significant effects
